Values after ≈ are worked out from the molar mass of the structure shown. Like-named read-outs stand apart in the source and are kept apart here.
Key:
Experiment in all cases: MIC determination by in vitro antifungal assay
Type in all cases: cell-based, Candida auris
[1] = system: C. auris AR Bank #388
Method: (§1) The antifungal agent amphotericin B (AmB) was purchased from VWR (Radnor PA, USA). AmB was dissolved in DMSO at a final concentration of 5 mg/mL and was stored at −20° C., protected from light. Candida albicans American Type Culture Collection (ATCC) 10231 (strain A), C. albicans ATCC 64124 (B), and C. albicans ATCC MYA-2876 (C) were obtained from Utah State University. C. albicans ATCC 90819 (D), C. albicans ATCC MYA-2310 (E), C. albicans ATCC MYA-1237 (F), C. albicans ATCC MYA-1003 (G), Candida glabrata ATCC 2001 (H), Candida krusei ATCC 6258 (I), Candida parapsilosis ATCC 22019 (J), Cryptococcus neoformans ATCC MYA-895 (M), Aspergillus terreus ATCC MYA-3633 (N), and Aspergillus flavus ATCC MYA-3631 (0) were obtained from the American Type Culture Collection (ATCC; Manassas, VA, USA). Aspergillus nidulans ATCC 38163 (P) was obtained from University of Kentucky. Clinically derived Aspergillus fumigatus NRRL 163 (Q), A. fumigatus NRRL 5109 (R), and A. fumigatus NRRL 6113 (S) were obtained from Northern Regional Research Laboratory (NRRL). Candida auris 384 (K), C. auris 390 (L), and fungal strains 381-400 (including 10 C. auris (AR Bank #381-390), 3 Candida duobushaemulonii (AR Bank #391, AR Bank #392, and AR Bank #394), 2 Candida haemulonii (AR Bank #393 and AR Bank #395), 1 Kodameae ohmeri (AR Bank #396), 1 C. krusei (AR Bank #397), 1 Candida lusitaniae (AR Bank #398), and 2 Saccharomyces cerevisiae strains (AR Bank #399 and AR Bank #400)) were part of a larger fungal library from the AR Bank maintained by the Centers for Disease Control and Prevention (CDC; Atlanta, GA, USA). Filamentous fungi and yeasts were cultivated at 35° C. in RPMI 1640 medium (with L-glutamine, without sodium bicarbonate, Sigma-Aldrich, St. Louis, MO) buffered to a pH of 7.0 with 0.165 M morpholinepropanesulfonic acid (MOPS) buffer (Sigma-Aldrich). For cytotoxicity assays, HepG2 and the mouse macrophage cell line J774A.1 were obtained from University of Kentucky. The human embryonic kidney cell line, HEK-293, was bought from the ATCC. Mammalian cells were grown in Dulbecco's Modified Eagle's Medium (DMEM) (from VWR) with 10% fetal bovine serum (FBS) (from VWR) and 1% Pen/Strep (from ATCC). Cell lines were cultured at 37° C. with 5% CO2 and passaged by trypsinization with 0.05% trypsin: 0.53 mM EDTA (from Sigma-Aldrich).
(§2) From the actively growing yeast culture, 100 µL were then transferred to 900 μL of RPMI 1640 medium and re-adjusted to achieve OD600 of 0.12 (˜1×10^6 CFU/mL). The cell suspension was further diluted to achieve 1:100 in RPMI 1640 medium.

[2] = system: C. auris AR Bank #381
Method: as §1, §2

[3] = system: C. auris AR Bank #383
Method: as §1, §2

[4] = system: C. auris AR Bank #387
Method: as §1, §2

[5] = system: C. auris AR Bank #389
Method: as §1, §2

[6] = system: C. auris AR Bank #385
Method: as §1, §2

[7] = system: C. auris AR Bank #386
Method: as §1, §2

[8] = system: C. auris AR Bank #382
Method: as §1, §2

[9] = C. auris AR Bank # 388 (Table 2B)
[10] = C. auris AR Bank # 381 (Table 2B)
[11] = C. auris AR Bank # 383 (Table 2B)
[12] = C. auris AR Bank # 387 (Table 2B)
[13] = C. auris AR Bank # 389 (Table 2B)
[14] = C. auris AR Bank # 385 (Table 2B)
[15] = C. auris AR Bank # 386 (Table 2B)
[16] = C. auris AR Bank # 382 (Table 2B)
[17] = Candidozyma auris, C. auris AR Bank # 388 (Table 2B), read-out: MIC
[18] = Candidozyma auris, C. auris AR Bank # 381 (Table 2B), read-out: MIC
[19] = Candidozyma auris, C. auris AR Bank # 383 (Table 2B), read-out: MIC
[20] = Candidozyma auris, C. auris AR Bank # 387 (Table 2B), read-out: MIC
[21] = Candidozyma auris, C. auris AR Bank # 389 (Table 2B), read-out: MIC
[22] = Candidozyma auris, C. auris AR Bank # 385 (Table 2B), read-out: MIC
[23] = Candidozyma auris, C. auris AR Bank # 386 (Table 2B), read-out: MIC
[24] = Candidozyma auris, C. auris AR Bank # 382 (Table 2B), read-out: MIC
[25] = Candidozyma auris, C. auris AR Bank #388, read-out: MIC
[26] = Candidozyma auris, C. auris AR Bank #381, read-out: MIC
[27] = Candidozyma auris, C. auris AR Bank #383, read-out: MIC
[28] = Candidozyma auris, C. auris AR Bank #387, read-out: MIC
[29] = Candidozyma auris, C. auris AR Bank #389, read-out: MIC
[30] = Candidozyma auris, C. auris AR Bank #385, read-out: MIC
[31] = Candidozyma auris, C. auris AR Bank #386, read-out: MIC
[32] = Candidozyma auris, C. auris AR Bank #382, read-out: MIC

For O=C(NNc1ccc(Cl)cc1)c1cccc(F)n1 [Compound 5e], the MIC [1, 9] was 7.8 μg/mL^−1, the MIC [2, 10] was 7.8 μg/mL^−1 and the MIC [3, 11] was 3.9 μg/mL^−1. The MIC [4, 12] was 7.8 μg/mL^−1, the MIC [5, 13] was 7.8 μg/mL^−1 and the MIC [6, 14] was 3.9 μg/mL^−1. It also gave an MIC [7, 15] of 7.8 μg/mL^−1 and an MIC [8, 16] of 7.8 μg/mL^−1.
O=C(NNc1ccc(F)cc1F)c1cccc(F)n1 [Compound 5g] showed an MIC [1, 17] of 3.9 µg/mL (≈ 14.6 µM), an MIC [2, 18] of 3.9 µg/mL (≈ 14.6 µM) and an MIC [3, 19] of 1.95 µg/mL (≈ 7.3 µM). The MIC [4, 20] was 1.95 µg/mL (≈ 7.3 µM), the MIC [5, 21] was 3.9 µg/mL (≈ 14.6 µM) and the MIC [6, 22] was 3.9 µg/mL (≈ 14.6 µM). The MIC [7, 23] was 1.95 µg/mL (≈ 7.3 µM) and the MIC [8, 24] was 0.98 µg/mL (≈ 3.67 µM).
For O=C(NNc1ccc(F)cc1)c1cccc(Br)n1 [Compound 6d], the MIC [1, 17] was 0.98 µg/mL (≈ 3.16 µM), the MIC [2, 18] was 1.95 µg/mL (≈ 6.29 µM) and the MIC [3, 19] was 1.95 µg/mL (≈ 6.29 µM). For the same compound, the MIC [4, 20] was 0.98 µg/mL (≈ 3.16 µM), the MIC [5, 21] was 1.95 µg/mL (≈ 6.29 µM) and the MIC [6, 22] was 0.98 µg/mL (≈ 3.16 µM). The MIC [7, 23] was 1.95 µg/mL (≈ 6.29 µM) and the MIC [8, 24] was 0.98 µg/mL (≈ 3.16 µM).
Compound O=C(NNc1ccc(F)cc1)c1ncc(F)cc1F [Compound 7d] has an MIC [1, 17] of 0.49 µg/mL (≈ 1.83 µM), an MIC [2, 18] of 1.95 µg/mL (≈ 7.3 µM) and an MIC [3, 19] of 1.95 µg/mL (≈ 7.3 µM). For the same compound, the MIC [4, 20] was 0.49 µg/mL (≈ 1.83 µM), the MIC [5, 21] was 1.95 µg/mL (≈ 7.3 µM) and the MIC [6, 22] was 0.49 µg/mL (≈ 1.83 µM). It also gave an MIC [7, 23] of 0.98 µg/mL (≈ 3.67 µM) and an MIC [8, 24] of 0.98 µg/mL (≈ 3.67 µM).
Work on O=C(NNc1ccc(Cl)cc1)c1ncc(F)cc1F [Compound 7e] yielded an MIC [1, 9] of 7.8 μg/mL^−1, an MIC [2, 10] of 7.8 μg/mL^−1 and an MIC [3, 11] of 3.9 μg/mL^−1. It also gave an MIC [4, 12] of 15.6 μg/mL^−1, an MIC [5, 13] of 7.8 μg/mL^−1 and an MIC [6, 14] of 7.8 μg/mL^−1. It also gave an MIC [7, 15] of 15.6 μg/mL^−1 and an MIC [8, 16] of 15.6 μg/mL^−1.
Work on COc1ccc(NNC(=O)c2ncc(F)cc2F)cc1 [Compound 7f] yielded an MIC [1, 17] of 0.98 µg/mL (≈ 3.51 µM), an MIC [2, 18] of 0.98 µg/mL (≈ 3.51 µM) and an MIC [3, 19] of 0.98 µg/mL (≈ 3.51 µM). The MIC [4, 20] was 0.98 µg/mL (≈ 3.51 µM), the MIC [5, 21] was 0.98 µg/mL (≈ 3.51 µM) and the MIC [6, 22] was 0.49 µg/mL (≈ 1.75 µM). It also gave an MIC [7, 23] of 0.98 µg/mL (≈ 3.51 µM) and an MIC [8, 24] of 0.98 µg/mL (≈ 3.51 µM).
O=C(NNc1ccc(F)cc1F)c1ncc(F)cc1F [Compound 7g] was tested, and the MIC [1, 17] was 3.9 µg/mL (≈ 13.7 µM), the MIC [2, 18] was 3.9 µg/mL (≈ 13.7 µM) and the MIC [3, 19] was 3.9 µg/mL (≈ 13.7 µM). It also gave an MIC [4, 20] of 1.95 µg/mL (≈ 6.84 µM), an MIC [5, 21] of 3.9 µg/mL (≈ 13.7 µM) and an MIC [6, 22] of 0.98 µg/mL (≈ 3.44 µM). For the same compound, the MIC [7, 23] was 1.95 µg/mL (≈ 6.84 µM) and the MIC [8, 24] was 1.95 µg/mL (≈ 6.84 µM).
O=C(NNc1ccc(F)cc1)c1nc(F)ccc1F [Compound 8d] showed an MIC [1, 17] of 0.49 µg/mL (≈ 1.83 µM), an MIC [2, 18] of 0.98 µg/mL (≈ 3.67 µM) and an MIC [3, 19] of 0.98 µg/mL (≈ 3.67 µM). For the same compound, the MIC [4, 20] was 0.49 µg/mL (≈ 1.83 µM), the MIC [5, 21] was 0.98 µg/mL (≈ 3.67 µM) and the MIC [6, 22] was 0.24 µg/mL (≈ 0.898 µM). It also gave an MIC [7, 23] of 0.98 µg/mL (≈ 3.67 µM) and an MIC [8, 24] of 0.98 µg/mL (≈ 3.67 µM).
In the case of O=C(NNc1ccc(Cl)cc1)c1nc(F)ccc1F [Compound 8e], the MIC [1, 9] is reported as 15.6 μg/mL^−1, the MIC [2, 10] is reported as 7.8 μg/mL^−1 and the MIC [3, 11] is reported as 7.8 μg/mL^−1. The MIC [4, 12] was 7.8 μg/mL^−1, the MIC [5, 13] was 7.8 μg/mL^−1 and the MIC [6, 14] was 3.9 μg/mL^−1. For the same compound, the MIC [7, 15] was 15.6 μg/mL^−1 and the MIC [8, 16] was 7.8 μg/mL^−1.
In the case of COc1ccc(NNC(=O)c2nc(F)ccc2F)cc1 [Compound 8f], the MIC [1, 17] is reported as 0.98 µg/mL (≈ 3.51 µM), the MIC [2, 18] is reported as 0.98 µg/mL (≈ 3.51 µM) and the MIC [3, 19] is reported as 1.95 µg/mL (≈ 6.98 µM). It also gave an MIC [4, 20] of 0.98 µg/mL (≈ 3.51 µM), an MIC [5, 21] of 0.98 µg/mL (≈ 3.51 µM) and an MIC [6, 22] of 0.49 µg/mL (≈ 1.75 µM). The MIC [7, 23] was 0.98 µg/mL (≈ 3.51 µM) and the MIC [8, 24] was 0.98 µg/mL (≈ 3.51 µM).
For O=C(NNc1ccc(F)cc1F)c1nc(F)ccc1F [Compound 8g], the MIC [1, 17] was 0.98 µg/mL (≈ 3.44 µM), the MIC [2, 18] was 1.95 µg/mL (≈ 6.84 µM) and the MIC [3, 19] was 1.95 µg/mL (≈ 6.84 µM). The MIC [4, 20] was 0.98 µg/mL (≈ 3.44 µM), the MIC [5, 21] was 1.95 µg/mL (≈ 6.84 µM) and the MIC [6, 22] was 0.49 µg/mL (≈ 1.72 µM). The MIC [7, 23] was 1.95 µg/mL (≈ 6.84 µM) and the MIC [8, 24] was 1.95 µg/mL (≈ 6.84 µM).
O=C(NNc1cccc(Cl)c1)c1cnccn1 [Compound 9b] was tested, and the MIC [1, 25] was 0.24 µg/mL (≈ 0.965 µM), the MIC [2, 26] was 0.49 µg/mL (≈ 1.97 µM) and the MIC [3, 27] was 0.24 µg/mL (≈ 0.965 µM). The MIC [4, 28] was 0.24 µg/mL (≈ 0.965 µM), the MIC [5, 29] was 0.24 µg/mL (≈ 0.965 µM) and the MIC [6, 30] was 0.24 µg/mL (≈ 0.965 µM). For the same compound, the MIC [7, 31] was ≤ 0.06 µg/mL and the MIC [8, 32] was 0.12 µg/mL (≈ 0.483 µM).
COc1cccc(NNC(=O)c2cnccn2)c1 [Compound 9c] was tested, and the MIC [1, 25] was 3.9 µg/mL (≈ 16 µM), the MIC [2, 26] was 1.95 µg/mL (≈ 7.98 µM) and the MIC [3, 27] was 1.95 µg/mL (≈ 7.98 µM). It also gave an MIC [4, 28] of 0.98 µg/mL (≈ 4.01 µM), an MIC [5, 29] of 0.98 µg/mL (≈ 4.01 µM) and an MIC [6, 30] of 7.8 µg/mL (≈ 31.9 µM). It also gave an MIC [7, 31] of 0.49 µg/mL (≈ 2.01 µM) and an MIC [8, 32] of 0.98 µg/mL (≈ 4.01 µM).
